We go through 20 compounds from patent US20120045393A1 (priority 2009, published 2012).

Like-named read-outs stand apart in the source and are kept apart here. Non-standard residues stand in square brackets, D forms with d. Residues, ends and D or L forms follow the SMILES beside them. *: point of attachment. DOTA = O=C(O)CN1CCN(CC(=O)O)CCN(CC(=O)*)CCN(CC(=O)O)CC1; Bpa = N[C@@H](Cc1ccc(C(=O)c2ccccc2)cc1)C(=O)O; Ala(4-thiazolyl) = N[C@@H](Cc1cscn1)C(=O)O; d2Nal = N[C@H](Cc1ccc2ccccc2c1)C(=O)O; azaGly = NNC(=O)O; Sar = CNCC(=O)O Some results are limits rather than exact numbers.

The test deals with LHRH binding sites on human ovarian cancer cells (EFO-27).
[1] abbreviates: Table 5: modifications of amino acids at positions 1 and 2, in vitro binding on EFO-27 cells.
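Further: Cell-associated radioactivity on confluent EFO-27 monolayers in 96-well plates, measured by microplate scintillation counting.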

`N=C(N)NCCC[C@@H](NC(=O)[C@H](Cc1c[nH]cn1)NC(=O)[C@H](CO)NC(=O)[C@H](Cc1c[nH]c2ccccc12)NC(=O)[C@H](Cc1c[nH]cn1)NC(=O)[C@@H](Cc1ccc(O)cc1)NC(=O)CN1CCN(CC(=O)O)CCN(CC(=O)O)CCN(CC(=O)O)CC1)C(=O)N[C@@H](Cc1c[nH]c2ccccc12)C(=O)N[C@@H](Cc1ccc(C(=O)c2ccccc2)cc1)C(=O)N1CCC[C@H]1C(=O)NNC(N)=O` [BRU-2870] ({DOTA}-[dY]HWSH[dR]W[Bpa]P[azaGly]-NH2) yielded an EC50 under setting [1] of 10000 nM.
As to `N=C(N)NCCC[C@H](NC(=O)[C@H](CO)NC(=O)[C@H](Cc1c[nH]c2ccccc12)NC(=O)[C@H](CCCNC(=N)N)NC(=O)[C@@H](Cc1ccc2ccccc2c1)NC(=O)CN1CCN(CC(=O)O)CCN(CC(=O)O)CCN(CC(=O)O)CC1)C(=O)N[C@H](Cc1c[nH]c2ccccc12)C(=O)N[C@@H](Cc1c[nH]c2ccccc12)C(=O)N[C@@H](Cc1ccc(C(=O)c2ccccc2)cc1)C(=O)N1CCC[C@H]1C(=O)NNC(N)=O` [compound 3001] ({DOTA}-[d2Nal]RWSR[dW]W[Bpa]P[azaGly]-NH2), the EC50 turned out to be 3280 nM.
Regarding `N=C(N)NCCC[C@@H](NC(=O)[C@H](Cc1c[nH]cn1)NC(=O)[C@H](CO)NC(=O)[C@H](Cc1c[nH]c2ccccc12)NC(=O)[C@H](Cc1c[nH]cn1)NC(=O)[C@@H](Cc1cccc2ccccc12)NC(=O)CNC(=O)CN1CCN(CC(=O)O)CCN(CC(=O)O)CCN(CC(=O)O)CC1)C(=O)N[C@@H](Cc1c[nH]c2ccccc12)C(=O)N[C@@H](Cc1ccc(C(=O)c2ccccc2)cc1)C(=O)N1CCC[C@H]1C(=O)NNC(N)=O` [BRU-2766], it took 620 nM to reach a half-maximal effect under setting [1] (EC50).
Under setting [1], `N=C(N)NCCC[C@@H](NC(=O)[C@H](Cc1c[nH]cn1)NC(=O)[C@H](CO)NC(=O)[C@H](Cc1c[nH]c2ccccc12)NC(=O)[C@H](Cc1c[nH]cn1)NC(=O)[C@@H](Cc1ccccc1)NC(=O)CN1CCN(CC(=O)O)CCN(CC(=O)O)CCN(CC(=O)O)CC1)C(=O)N[C@@H](Cc1c[nH]c2ccccc12)C(=O)N[C@@H](Cc1ccc(C(=O)c2ccccc2)cc1)C(=O)N1CCC[C@H]1C(=O)NNC(N)=O` [BRU-2894] returned an EC50 of 2000 nM.
`CN(CC(=O)N[C@@H](Cc1c[nH]cn1)C(=O)N[C@@H](Cc1c[nH]c2ccccc12)C(=O)N[C@@H](CO)C(=O)N[C@@H](Cc1c[nH]cn1)C(=O)N[C@H](CCCNC(=N)N)C(=O)N[C@@H](Cc1c[nH]c2ccccc12)C(=O)N[C@@H](Cc1ccc(-c2ccccc2)cc1)C(=O)N1CCC[C@H]1C(=O)NNC(N)=O)C(=O)CN1CCN(CC(=O)O)CCN(CC(=O)O)CCN(CC(=O)O)CC1` [BRU-2625] yielded an EC50 of 2140 nM.
Same read-out and setting: the result for `CN(CC(=O)N[C@@H](Cc1c[nH]cn1)C(=O)N[C@@H](Cc1c[nH]c2ccccc12)C(=O)N[C@@H](CO)C(=O)N[C@@H](Cc1c[nH]cn1)C(=O)N[C@H](CCCNC(=N)N)C(=O)N[C@@H](Cc1c[nH]c2ccccc12)C(=O)N[C@@H](Cc1cccc2ccccc12)C(=O)N1CCC[C@H]1C(=O)NNC(N)=O)C(=O)CN1CCN(CC(=O)O)CCN(CC(=O)O)CCN(CC(=O)O)CC1` [BRU-2720] reads 540 nM.
As to `CN(CC(=O)N[C@@H](Cc1cscn1)C(=O)N[C@@H](Cc1c[nH]c2ccccc12)C(=O)N[C@@H](CO)C(=O)N[C@@H](Cc1cscn1)C(=O)N[C@H](CCCNC(=N)N)C(=O)N[C@@H](Cc1c[nH]c2ccccc12)C(=O)N[C@@H](Cc1ccc(C(=O)c2ccccc2)cc1)C(=O)N1CCC[C@H]1C(=O)NNC(N)=O)C(=O)CN1CCN(CC(=O)O)CCN(CC(=O)O)CCN(CC(=O)O)CC1` [BRU-2762] ({DOTA}-[Sar][Ala(4-thiazolyl)]WS[Ala(4-thiazolyl)][dR]W[Bpa]P[azaGly]-NH2; C-terminus assumed), the EC50 turned out to be 15000 nM.
Turning to `CNCC(=O)N[C@@H](CCCNC(=N)N)C(=O)N[C@@H](Cc1c[nH]c2ccccc12)C(=O)N[C@@H](CO)C(=O)N[C@@H](Cc1c[nH]cn1)C(=O)N[C@H](CCCNC(=N)N)C(=O)N[C@@H](Cc1c[nH]c2ccccc12)C(=O)N[C@@H](Cc1ccc(C(=O)c2ccccc2)cc1)C(=O)N1CCC[C@H]1C(=O)NCCNC(=O)CN1CCN(CC(=O)O)CCN(CC(=O)O)CCN(CC(=O)O)CC1` [compound 3103], the EC50 was 170 ± 70 nM.
The compound `CN(CC(=O)N[C@@H](Cc1ccc(O)cc1)C(=O)N[C@@H](Cc1c[nH]c2ccccc12)C(=O)N[C@@H](CO)C(=O)N[C@@H](Cc1c[nH]cn1)C(=O)N[C@H](CCCNC(=N)N)C(=O)N[C@@H](Cc1c[nH]c2ccccc12)C(=O)N[C@@H](Cc1ccc(C(=O)c2ccccc2)cc1)C(=O)N1CCC[C@H]1C(=O)NNC(N)=O)C(=O)CN1CCN(CC(=O)O)CCN(CC(=O)O)CCN(CC(=O)O)CC1` [BRU-2814] ({DOTA}-[Sar]YWSH[dR]W[Bpa]P[azaGly]-NH2) registered an EC50 under setting [1] of 2240 nM.
Turning to `CC(=O)N[C@H](Cc1ccc2ccccc2c1)C(=O)N[C@@H](CCCNC(=N)N)C(=O)N[C@@H](Cc1c[nH]c2ccccc12)C(=O)N[C@@H](CO)C(=O)N[C@@H](Cc1c[nH]cn1)C(=O)N[C@H](CCCNC(=N)N)C(=O)N[C@@H](Cc1c[nH]c2ccccc12)C(=O)N[C@@H](Cc1ccc(C(=O)c2ccccc2)cc1)C(=O)N1CCC[C@H]1C(=O)NCCOCCNC(=O)CN1CCN(CC(=O)O)CCN(CC(=O)O)CCN(CC(=O)O)CC1` [BRU-2992], the EC50 was in the range of 230 to 500 nM.
For the setting “EFO-27 cells, competition with [125I-Tyr8]BRU-2477, 90 min”, `CN(CC(=O)N[C@@H](Cc1c[nH]cn1)C(=O)N[C@@H](Cc1c[nH]c2ccccc12)C(=O)N[C@@H](CO)C(=O)N[C@@H](Cc1c[nH]cn1)C(=O)N[C@H](CO)C(=O)N[C@@H](Cc1c[nH]c2ccccc12)C(=O)N[C@@H](Cc1ccc(C(=O)c2ccccc2)cc1)C(=O)N1CCC[C@H]1C(=O)NNC(N)=O)C(=O)CN1CCN(CC(=O)O)CCN(CC(=O)O)CCN(CC(=O)O)CC1` [compound 2761] ({DOTA}-[Sar]HWSH[dS]W[Bpa]P[azaGly]-NH2) had a concentration for a half-maximal effect (EC50) of 13600 nM.
`CC(=O)N[C@H](Cc1ccc2ccccc2c1)C(=O)N[C@@H](CCCNC(=N)N)C(=O)N[C@@H](Cc1c[nH]c2ccccc12)C(=O)N[C@@H](CO)C(=O)N[C@@H](Cc1c[nH]cn1)C(=O)N[C@H](CCCNC(=N)N)C(=O)N[C@@H](Cc1c[nH]c2ccccc12)C(=O)N[C@@H](Cc1ccc(C(=O)c2ccccc2)cc1)C(=O)N1CCC[C@H]1C(=O)NCCOCCNC(=O)CN1CCN(CC(=O)O)CCN(CC(=O)O)CCN(CC(=O)O)CC1` [compound 2992] gave an EC50 of 470 ± 20 nM.
On the same count and under the same terms, with `CNCC(=O)N[C@@H](CCCNC(=N)N)C(=O)N[C@@H](Cc1c[nH]c2ccccc12)C(=O)N[C@@H](CO)C(=O)N[C@@H](Cc1c[nH]cn1)C(=O)N[C@H](CCCNC(=N)N)C(=O)N[C@@H](Cc1c[nH]c2ccccc12)C(=O)N[C@@H](Cc1ccc(C(=O)c2ccccc2)cc1)C(=O)N1CCC[C@H]1C(=O)N1CCCCC1CNC(=O)CN1CCN(CC(=O)O)CCN(CC(=O)O)CCN(CC(=O)O)CC1` (some centres unmarked) [BRU-3102] the figure was at most 200 nM; with `CCNC(=O)[C@@H]1CCCN1C(=O)[C@H](Cc1ccc(C(=O)c2ccccc2)cc1)NC(=O)[C@H](Cc1c[nH]c2ccccc12)NC(=O)[C@@H](CCCNC(=N)N)NC(=O)[C@H](Cc1c[nH]cn1)NC(=O)[C@H](CO)NC(=O)[C@H](Cc1c[nH]c2ccccc12)NC(=O)[C@H](CCCNC(=N)N)NC(=O)[C@@H](Cc1ccc2ccccc2c1)NC(=O)CN1CCN(CC(=O)O)CCN(CC(=O)O)CCN(CC(=O)O)CC1` [compound 2981], 970 nM.
`N=C(N)NCCC[C@H](NC(=O)[C@@H]1Cc2ccccc2CN1C(=O)CNC(=O)CN1CCN(CC(=O)O)CCN(CC(=O)O)CCN(CC(=O)O)CC1)C(=O)N[C@@H](Cc1c[nH]c2ccccc12)C(=O)N[C@@H](CO)C(=O)N[C@@H](Cc1c[nH]cn1)C(=O)N[C@H](CCCNC(=N)N)C(=O)N[C@@H](Cc1c[nH]c2ccccc12)C(=O)N[C@@H](Cc1ccc(C(=O)c2ccccc2)cc1)C(=O)N1CCC[C@H]1C(=O)NNC(N)=O` [BRU-3052] came in with an EC50 under setting [1] of 550 nM. This lies in the sub-micromolar range.
`CN(CC(N)=O)NC(=O)[C@@H]1CCCN1C(=O)[C@H](Cc1ccc(C(=O)c2ccccc2)cc1)NC(=O)[C@H](Cc1c[nH]c2ccccc12)NC(=O)[C@@H](CCCNC(=N)N)NC(=O)[C@H](Cc1c[nH]cn1)NC(=O)[C@H](CO)NC(=O)[C@H](Cc1c[nH]c2ccccc12)NC(=O)[C@H](CCCNC(=N)N)NC(=O)[C@@H](Cc1ccc2ccccc2c1)NC(=O)CN1CCN(CC(=O)O)CCN(CC(=O)O)CCN(CC(=O)O)CC1` [compound 2967] yielded an EC50 of 440 nM.
`CNCC(=O)N[C@@H](CCCNC(=N)N)C(=O)N[C@@H](Cc1c[nH]c2ccccc12)C(=O)N[C@@H](CO)C(=O)N[C@@H](Cc1c[nH]cn1)C(=O)N[C@H](CCCNC(=N)N)C(=O)N[C@@H](Cc1c[nH]c2ccccc12)C(=O)N[C@@H](Cc1ccc(C(=O)c2ccccc2)cc1)C(=O)N1CCC[C@H]1C(=O)NCCCN1CCN(CCCNC(=O)CN2CCN(CC(=O)O)CCN(CC(=O)O)CCN(CC(=O)O)CC2)CC1` [BRU-3044] gave a half-maximal effective concentration (EC50) of 230 to 500 nM.
Under setting [1], `N=C(N)NCCC[C@@H](NC(=O)[C@H](Cc1c[nH]cn1)NC(=O)[C@H](CO)NC(=O)[C@H](Cc1c[nH]c2ccccc12)NC(=O)[C@H](Cc1c[nH]cn1)NC(=O)CNC(=O)CN1CCN(CC(=O)O)CCN(CC(=O)O)CCN(CC(=O)O)CC1)C(=O)N[C@@H](Cc1c[nH]c2ccccc12)C(=O)N[C@@H](Cc1ccc(C(=O)c2ccccc2)cc1)C(=O)N1CCC[C@H]1C(=O)NNC(N)=O` [BRU-2733] returned a concentration giving a half-maximal response (EC50) of 1180 nM.
Still for that read-out and setting: with `N=C(N)NCCC[C@H](NC(=O)[C@H]1Cc2ccccc2CN1C(=O)CNC(=O)CN1CCN(CC(=O)O)CCN(CC(=O)O)CCN(CC(=O)O)CC1)C(=O)N[C@@H](Cc1c[nH]c2ccccc12)C(=O)N[C@@H](CO)C(=O)N[C@@H](Cc1c[nH]cn1)C(=O)N[C@H](CCCNC(=N)N)C(=O)N[C@@H](Cc1c[nH]c2ccccc12)C(=O)N[C@@H](Cc1ccc(C(=O)c2ccccc2)cc1)C(=O)N1CCC[C@H]1C(=O)NNC(N)=O` [BRU-3067] the figure was 510 nM.
Take `CN(CC(=O)N[C@@H](Cc1c[nH]cn1)C(=O)N[C@@H](Cc1c[nH]c2ccccc12)C(=O)N[C@@H](CO)C(=O)N[C@@H](Cc1c[nH]cn1)C(=O)N[C@H](CCCNC(=N)N)C(=O)N[C@@H](Cc1c[nH]c2ccccc12)C(=O)N1CCC[C@H]1C(=O)NNC(N)=O)C(=O)CN1CCN(CC(=O)O)CCN(CC(=O)O)CCN(CC(=O)O)CC1` [BRU-2767] (HELM PEPTIDE1{[O=C(O)CN1CCN(CC(=O)O)CCN(CC(=O)[*:2])CCN(CC(=O)O)CC1].[Sar].H.W.S.H.[dR].W.P.[O=C(NN[*:1])[*:2]].[am]}$$$$V2.0): the EC50 is 10000 nM.
